Laboratory results reported in patent US20110201562A1, “FORMULATIONS AND METHOD FOR TREATING BALDNESS” (SEDERMA, priority 2005, published 2011).
Each block holds one molecule with its values, some of them ahead of it.

How the values were obtained:
[1] = test system: blood vessels in the dermis; test: Vasodilation on the scalp (statement, no method)
[2] = test system: hair follicles; test: Cultured hair follicles: growth monitored over 14 days; type: cell-based; settings: 2 ppm in medium
Protocol: Excess hair follicles prepared in the context of a micrograft transplantation session were collected for culturing in a medium similar to that reported in, and herein encorporated by reference, Philpott et al., Whole Hair Follicule Culture, Dermatologic Clinics 595 (Oct. 14, 1996). Said hair follicles were then individually incubated at 37° C. under an air plus CO2 (at 5%) atmosphere for 14 days. The explants were then divided into four groups: 1) a control group for the culture medium alone, 2) a positive control group which was exposed to a medium of 2 ppm Minoxidil®, 3) a test group exposed to the peptide biotinyl-GHK in a medium of 2 ppm biotinyl-GHK, and 4) a test group exposed to the peptide biotinyl-GHK in a medium of 5 ppm biotinyl-GHK. The culture medium was changed every 2 days. General morphology was observed on Day 1 and Day 14. Concomitantly, a fraction of the follicles were frozen for the purposes of conducting more advanced immunohistochemical studies. Growth in the follicles was monitored using a digital camera with images being taken on Day 0, Day 3, Day 5, Day 7, Day 11, and Day 14.

[3] = test system: 5α-reductase; test: Inhibition of 5α-reductase (statement, no method); type: biochemical

Structure (SMILES): O=c1cc(-c2ccc(O)cc2)oc2cc(O)cc(O)c12 [Apigenin]
effect of use on the scalp on blood vessels [1]: dilates the blood vessels in the dermis

Structure (SMILES): Nc1cc(N2CCCCC2)nc(N)[n+]1[O-] [Minoxidil®, Minoxidil, reference compound]
more growth than observed from the control group [2]: 58%

inhibitory action on the enzyme 5α-reductase [3]: strong inhibitory action
Structure (SMILES): CC1(C)CC[C@]2(C(=O)O)CC[C@]3(C)C(=CC[C@@H]4[C@@]5(C)CC[C@H](O)C(C)(C)[C@@H]5CC[C@]43C)[C@@H]2C1 [oleanolic acid]
